Reference: US20150191469A1, “COMPOUNDS AND METHODS FOR TREATING HIV” (priority 2012, published 2015)

system: HIV; experiment: MT4 assay: antiviral HIV activity (cell protection, cell titer glo readout at 96 hours); format: cell-based; conditions: Human immunodeficiency virus 1, MT4, 96 h, MT4 cells, cell titer glo readout at 96 hours, 10 point dose response; read-out: HIV MT4 Assay IC50
Method in brief: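 MT-4 cells infected with HIV, with inhibition readout by CellTiter-Glo luminescence at 96 h relative to no-compound control. Cytotoxicity measured in parallel under the same conditions. IC50 from a 10-point, 3-4-fold dilution series spanning >1000-fold, fitted with a four-parameter logistic equation.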

| Compound | IC50 |
| --- | --- |
| Cc1ccc(N2CCN(C(=O)c3cc4c(-c5cc(F)c6c(c5C)CCCO6)c([C@H](OC(C)(C)C)C(=O)O)c(C)nc4n3C)CC2)cc1 [Example 224] | 0.0414 µM |
| Cc1nc2c(cc(C(=O)N3CCN(C4CCOCC4)CC3)n2C)c(-c2cc(F)c3c(c2C)CCCO3)c1[C@H](OC(C)(C)C)C(=O)O [Example 225] | 0.436 µM |
| Cc1nc2c(cc(C(=O)NCc3ccc(N(C)C)cc3)n2C)c(-c2cc(F)c3c(c2C)CCCO3)c1[C@H](OC(C)(C)C)C(=O)O [Example 227] | 0.0028 µM |
| CNC(=O)c1cc2c(-c3cc(F)c4c(c3C)CCCO4)c([C@H](OC(C)(C)C)C(=O)O)c(C)nc2n1C [Example 228] | 0.136 µM |
| Cc1nc2c(cc(C(=O)NCCO)n2C)c(-c2cc(F)c3c(c2C)CCCO3)c1[C@H](OC(C)(C)C)C(=O)O [Example 238] | 3.86 µM |
| Cc1nc2c(cc(C(=O)NCCC3CCOCC3)n2C)c(-c2cc(F)c3c(c2C)CCCO3)c1[C@H](OC(C)(C)C)C(=O)O [Example 241] | 0.0212 µM |
| Cc1nc2c(cc(C(=O)NC(C)(C)C)n2C)c(-c2cc(F)c3c(c2C)CCCO3)c1[C@H](OC(C)(C)C)C(=O)O [Example 242] | 0.0793 µM |
| Cc1nc2c(cc(C(=O)NC(C)C)n2C)c(-c2cc(F)c3c(c2C)CCCO3)c1[C@H](OC(C)(C)C)C(=O)O [Example 244] | 0.0253 µM |
| Cc1nc2c(cc(C(=O)NCCC(F)(F)F)n2C)c(-c2cc(F)c3c(c2C)CCCO3)c1[C@H](OC(C)(C)C)C(=O)O [Example 245] | 0.0225 µM |
| Cc1nc2c(cc(C(=O)NCCCN(C)C)n2C)c(-c2cc(F)c3c(c2C)CCCO3)c1[C@H](OC(C)(C)C)C(=O)O [Example 247] | 18.1 µM |
| Cc1nc2c(cc(C(=O)NCCN3CCCC3=O)n2C)c(-c2cc(F)c3c(c2C)CCCO3)c1[C@H](OC(C)(C)C)C(=O)O [Example 248] | 3.05 µM |
| Cc1nc2c(cc(C(=O)N3CCCC3)n2C)c(-c2cc(F)c3c(c2C)CCCO3)c1[C@H](OC(C)(C)C)C(=O)O [Example 250] | 0.0401 µM |
| COCCCNC(=O)c1cc2c(-c3cc(F)c4c(c3C)CCCO4)c([C@H](OC(C)(C)C)C(=O)O)c(C)nc2n1C [Example 252] | 0.0652 µM |
| Cc1nc2c(cc(C(=O)NCc3c(F)cccc3F)n2C)c(-c2cc(F)c3c(c2C)CCCO3)c1[C@H](OC(C)(C)C)C(=O)O [Example 254] | 0.0038 µM |
| Cc1nc2c(cc(C(=O)NCc3cccc(Cl)c3)n2C)c(-c2cc(F)c3c(c2C)CCCO3)c1[C@H](OC(C)(C)C)C(=O)O [Example 255] | 0.0038 µM |
| Cc1nc2c(cc(C(=O)NCc3c(F)cccc3Cl)n2C)c(-c2cc(F)c3c(c2C)CCCO3)c1[C@H](OC(C)(C)C)C(=O)O [Example 257] | 0.002 µM |
| Cc1nc2c(cc(C(=O)N3CCC(C)(C)CC3)n2C)c(-c2cc(F)c3c(c2C)CCCO3)c1[C@H](OC(C)(C)C)C(=O)O [Example 258] | 0.0314 µM |

| Compound | IC50 |
| --- | --- |
| Cc1nc2c(cc(C(=O)NCc3ccc4c(c3)OCO4)n2C)c(-c2cc(F)c3c(c2C)CCCO3)c1[C@H](OC(C)(C)C)C(=O)O [Example 260] | 0.0019 µM |
| CCN(C(=O)c1cc2c(-c3cc(F)c4c(c3C)CCCO4)c([C@H](OC(C)(C)C)C(=O)O)c(C)nc2n1C)C1CCCCC1 [Example 261] | 0.0468 µM |
| Cc1nc2c(cc(C(=O)NCc3ccc(Cl)cc3)n2C)c(-c2cc(F)c3c(c2C)CCCO3)c1[C@H](OC(C)(C)C)C(=O)O [Example 263] | 0.0031 µM |
| Cc1nc2c(cc(C(=O)NCc3cccc(F)c3)n2C)c(-c2cc(F)c3c(c2C)CCCO3)c1[C@H](OC(C)(C)C)C(=O)O [Example 265] | 0.0048 µM |
| Cc1nc2c(cc(C(=O)NCc3cccnc3)n2C)c(-c2cc(F)c3c(c2C)CCCO3)c1[C@H](OC(C)(C)C)C(=O)O [Example 266] | 0.145 µM |
| Cc1nc2c(cc(C(=O)NCCC(C)C)n2C)c(-c2cc(F)c3c(c2C)CCCO3)c1[C@H](OC(C)(C)C)C(=O)O [Example 268] | 0.0034 µM |
| COCCN(CCOC)C(=O)c1cc2c(-c3cc(F)c4c(c3C)CCCO4)c([C@H](OC(C)(C)C)C(=O)O)c(C)nc2n1C [Example 269] | 0.0805 µM |
| Cc1nc2c(cc(C(=O)NCCN3CCCCC3)n2C)c(-c2cc(F)c3c(c2C)CCCO3)c1[C@H](OC(C)(C)C)C(=O)O [Example 272] | 0.294 µM |
| Cc1nc2c(cc(C(=O)NCCCN3CCCC3=O)n2C)c(-c2cc(F)c3c(c2C)CCCO3)c1[C@H](OC(C)(C)C)C(=O)O [Example 273] | 0.939 µM |
| Cc1nc2c(cc(C(=O)NCc3ccncc3)n2C)c(-c2cc(F)c3c(c2C)CCCO3)c1[C@H](OC(C)(C)C)C(=O)O [Example 274] | 0.208 µM |
| Cc1nc2c(cc(C(=O)NCCN3CCCC3)n2C)c(-c2cc(F)c3c(c2C)CCCO3)c1[C@H](OC(C)(C)C)C(=O)O [Example 275] | 1 µM |
| Cc1nc2c(cc(C(=O)N3CCN(C(C)C)CC3)n2C)c(-c2cc(F)c3c(c2C)CCCO3)c1[C@H](OC(C)(C)C)C(=O)O [Example 277] | 0.1 µM |
| Cc1nc2c(cc(C(=O)N3CCC(N4CCCCC4)CC3)n2C)c(-c2cc(F)c3c(c2C)CCCO3)c1[C@H](OC(C)(C)C)C(=O)O [Example 278] | 0.11 µM |
| COC(C)(C)CCNC(=O)c1cc2c(-c3cc(F)c4c(c3C)CCCO4)c([C@H](OC(C)(C)C)C(=O)O)c(C)nc2n1C [Example 279] | 0.01 µM |
| Cc1nc2c(cc(CCc3ccncc3)n2C)c(-c2cc(F)c3c(c2C)CCCO3)c1[C@H](OC(C)(C)C)C(=O)O [Example 285] | 0.0466 µM |
| Cc1nc2c(cc(CCc3ccc4cnn(C)c4c3)n2C)c(-c2cc(F)c3c(c2C)CCCO3)c1[C@H](OC(C)(C)C)C(=O)O [Example 286] | 0.015 µM |
| Cc1nc2c(cc(CN3CCCN(C4COC4)CC3)n2C)c(-c2cc(F)c3c(c2C)CCCO3)c1[C@H](OC(C)(C)C)C(=O)O [Example 289] | 0.171 µM |

Second part, the compound after the results:

| IC50 | Compound |
| --- | --- |
| 0.0122 µM | Cc1nc2c(cc(C(=O)NCC3CC3)n2C)c(-c2cc(F)c3c(c2C)CCCO3)c1[C@H](OC(C)(C)C)C(=O)O [Example 229] |
| 0.0047 µM | Cc1nc2c(cc(C(=O)NCc3ccc(F)cc3)n2C)c(-c2cc(F)c3c(c2C)CCCO3)c1[C@H](OC(C)(C)C)C(=O)O [Example 230] |
| 0.0487 µM | COCCNC(=O)c1cc2c(-c3cc(F)c4c(c3C)CCCO4)c([C@H](OC(C)(C)C)C(=O)O)c(C)nc2n1C [Example 231] |
| 0.002 µM | Cc1nc2c(cc(C(=O)NCCC(C)(C)C)n2C)c(-c2cc(F)c3c(c2C)CCCO3)c1[C@H](OC(C)(C)C)C(=O)O [Example 232] |
| 0.0036 µM | COc1ccc(CNC(=O)c2cc3c(-c4cc(F)c5c(c4C)CCCO5)c([C@H](OC(C)(C)C)C(=O)O)c(C)nc3n2C)cc1 [Example 233] |
| 0.0447 µM | Cc1nc2c(cc(C(=O)NC3CC3)n2C)c(-c2cc(F)c3c(c2C)CCCO3)c1[C@H](OC(C)(C)C)C(=O)O [Example 234] |
| 0.0324 µM | CSCCNC(=O)c1cc2c(-c3cc(F)c4c(c3C)CCCO4)c([C@H](OC(C)(C)C)C(=O)O)c(C)nc2n1C [Example 235] |
| 4.14 µM | Cc1nc2c(cc(C(=O)NCCS(C)(=O)=O)n2C)c(-c2cc(F)c3c(c2C)CCCO3)c1[C@H](OC(C)(C)C)C(=O)O [Example 236] |
| 0.0043 µM | Cc1nc2c(cc(C(=O)NCC3CCCCC3)n2C)c(-c2cc(F)c3c(c2C)CCCO3)c1[C@H](OC(C)(C)C)C(=O)O [Example 237] |
| 0.0065 µM | CCCCNC(=O)c1cc2c(-c3cc(F)c4c(c3C)CCCO4)c([C@H](OC(C)(C)C)C(=O)O)c(C)nc2n1C [Example 239] |
| 0.37 µM | Cc1nc2c(cc(C(=O)NCCN3CCOCC3)n2C)c(-c2cc(F)c3c(c2C)CCCO3)c1[C@H](OC(C)(C)C)C(=O)O [Example 240] |
| 0.03 µM | Cc1nc2c(cc(C(=O)NCC(C)(C)C)n2C)c(-c2cc(F)c3c(c2C)CCCO3)c1[C@H](OC(C)(C)C)C(=O)O [Example 243] |
| 0.0151 µM | Cc1nc2c(cc(C(=O)NCC(C)C)n2C)c(-c2cc(F)c3c(c2C)CCCO3)c1[C@H](OC(C)(C)C)C(=O)O [Example 246] |
| 0.0121 µM | Cc1nc2c(cc(C(=O)NC3CCCCC3)n2C)c(-c2cc(F)c3c(c2C)CCCO3)c1[C@H](OC(C)(C)C)C(=O)O [Example 249] |
| 0.0283 µM | Cc1nc2c(cc(C(=O)N3CCCCC3)n2C)c(-c2cc(F)c3c(c2C)CCCO3)c1[C@H](OC(C)(C)C)C(=O)O [Example 251] |
| 0.0019 µM | Cc1nc2c(cc(C(=O)NCc3c(Cl)cccc3Cl)n2C)c(-c2cc(F)c3c(c2C)CCCO3)c1[C@H](OC(C)(C)C)C(=O)O [Example 253] |
| 0.0345 µM | Cc1nc2c(cc(C(=O)N(C)C3CCCCC3)n2C)c(-c2cc(F)c3c(c2C)CCCO3)c1[C@H](OC(C)(C)C)C(=O)O [Example 256] |
| 0.0019 µM | Cc1nc2c(cc(C(=O)NCCC3CCCCC3)n2C)c(-c2cc(F)c3c(c2C)CCCO3)c1[C@H](OC(C)(C)C)C(=O)O [Example 259] |
| 0.103 µM | Cc1nc2c(cc(C(=O)NCCc3cccnc3)n2C)c(-c2cc(F)c3c(c2C)CCCO3)c1[C@H](OC(C)(C)C)C(=O)O [Example 262] |
| 0.454 µM | Cc1nc2c(cc(C(=O)NCC3COC3)n2C)c(-c2cc(F)c3c(c2C)CCCO3)c1[C@H](OC(C)(C)C)C(=O)O [Example 264] |
| 0.0261 µM | Cc1nc2c(cc(C(=O)NCc3ccccn3)n2C)c(-c2cc(F)c3c(c2C)CCCO3)c1[C@H](OC(C)(C)C)C(=O)O [Example 267] |
| 0.112 µM | Cc1nc2c(cc(C(=O)N(C)C)n2C)c(-c2cc(F)c3c(c2C)CCCO3)c1[C@H](OC(C)(C)C)C(=O)O [Example 270] |
| 0.0016 µM | Cc1nc2c(cc(C(=O)NC3Cc4ccccc4C3)n2C)c(-c2cc(F)c3c(c2C)CCCO3)c1[C@H](OC(C)(C)C)C(=O)O [Example 271] |
| 0.01 µM | Cc1nc2c(cc(C(=O)NCC3CCC3)n2C)c(-c2cc(F)c3c(c2C)CCCO3)c1[C@H](OC(C)(C)C)C(=O)O [Example 276] |
| 0.4 µM | Cc1nc2c(cc(C3CCC(C)(C)CC3)n2C)c(-c2cc(F)c3c(c2C)CCCO3)c1[C@H](OC(C)(C)C)C(=O)O [Example 283] |
| 0.0157 µM | Cc1nc2c(cc(CCc3ccnc4ccccc34)n2C)c(-c2cc(F)c3c(c2C)CCCO3)c1[C@H](OC(C)(C)C)C(=O)O [Example 284] |
